Data published in PubChem BioAssay AID330 (DTP/NCI, 2004).
“And” between values parts separate entries of the source, which are not always exact repeats. Equal values may be shown once. Inconclusive results and toxic doses are left out.

Tested on: P388 leukemia ip, CD2F1 mice, survival T/C
Experiment: NCI In Vivo Anticancer Drug Screen. Data for tumor model P388 Leukemia (intraperitoneal) in CD2F1 (CDF1) mice
Conditions: endpoint: median survival time, higher = longer survival
Outline: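 Mice carrying the transplanted tumor received test compound or vehicle. Survival was recorded in each group, and the value is the treated-group measurement divided by that of the vehicle-treated control group.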

[1] = dose: 50.0 mg/kg/injection, schedule: Q01DX005 (ip), vehicle: saline with Tween-80
[2] = dose: 100.0 mg/kg/injection, schedule: Q01DX005 (ip), vehicle: saline with Tween-80
[3] = dose: 12.5 mg/kg/injection, schedule: Q01DX009 (ip), vehicle: saline
[4] = dose: 25.0 mg/kg/injection, schedule: Q01DX009 (ip), vehicle: saline
[5] = dose: 50.0 mg/kg/injection, schedule: Q01DX009 (ip), vehicle: saline
[6] = dose: 100.0 mg/kg/injection, schedule: Q01DX009 (ip), vehicle: saline
[7] = dose: 50.0 mg/kg/injection, schedule: Q01DX005 (ip), vehicle: Klucel (hydroxypropylcellulose) (HPC)

In the case of `S=P(N1CC1)(N1CC1)N1CC1`, the T/C (dose: 0.62 mg/kg/injection, schedule: Q01DX005 (ip), vehicle: saline) was 100 % of control, the T/C (dose: 0.75 mg/kg/injection, schedule: Q01DX005 (ip), vehicle: saline) was 118 % of control and the T/C (dose: 0.75 mg/kg/injection, schedule: Q01DX009 (ip), vehicle: saline) was 106 % of control. The T/C (dose: 1.25 mg/kg/injection, schedule: Q01DX005 (ip), vehicle: saline) was 115 % of control, the T/C (dose: 1.25 mg/kg/injection, schedule: Q04DX003 (ip), vehicle: water) was 101 % of control and 110 % of control (2×) and the T/C (dose: 1.5 mg/kg/injection, schedule: Q01DX005 (ip), vehicle: saline) was 114 % of control and 120 % of control. The T/C (dose: 2.0 mg/kg/injection, schedule: Q01DX009 (ip), vehicle: saline) was 124 % of control, the T/C (dose: 2.5 mg/kg/injection, schedule: Q04DX003 (ip), vehicle: water) was 110 % of control and the T/C (dose: 3.0 mg/kg/injection, schedule: Q01DX005 (ip), vehicle: saline) was 163 % of control. The T/C (dose: 3.0 mg/kg/injection, schedule: Q01DX009 (ip), vehicle: saline) was 163 % of control and 174 % of control, the T/C (dose: 3.24 mg/kg/injection, schedule: Q04DX002 (ip), vehicle: saline) was 124 % of control and the T/C (dose: 4.0 mg/kg/injection, schedule: Q01DX009 (ip), vehicle: saline) was 178 % of control. For the same molecule, the T/C (dose: 5.0 mg/kg/injection, schedule: Q01DX005 (ip), vehicle: saline) was 169 % of control, the T/C (dose: 5.0 mg/kg/injection, schedule: Q04DX003 (ip), vehicle: water) was 163 % of control and the T/C (dose: 6.0 mg/kg/injection, schedule: Q01DX005 (ip), vehicle: saline) was 181 % of control and 207 % of control and 90 % of control. The T/C (dose: 8.0 mg/kg/injection, schedule: Q01DX009 (ip), vehicle: saline) was 101 % of control, the T/C (dose: 9.0 mg/kg/injection, schedule: Q04DX002 (ip), vehicle: saline) was 166 % of control and the T/C (dose: 10.0 mg/kg/injection, schedule: Q04DX003 (ip), vehicle: water) was 159 % of control and 200 % of control and 229 % of control. For the same molecule, the T/C (dose: 12.0 mg/kg/injection, schedule: Q01DX005 (ip), vehicle: saline) was 88 % of control, the T/C (dose: 15.0 mg/kg/injection, schedule: Q04DX002 (ip), vehicle: saline) was 197 % of control and the T/C (dose: 20.0 mg/kg/injection, schedule: Q04DX003 (ip), vehicle: water) was 110 % of control and 90 % of control and 92 % of control. For the same molecule, the T/C (dose: 25.0 mg/kg/injection, schedule: Q04DX002 (ip), vehicle: saline) was 240 % of control.
With `Cc1cccc2sc(NC(=O)Nc3cccc(F)c3)nc12` the T/C (dose: 12.5 mg/kg/injection, schedule: Q01DX005 (ip), vehicle: saline with Tween-80) was 93 % of control and 94 % of control, the T/C (dose: 25.0 mg/kg/injection, schedule: Q01DX005 (ip), vehicle: saline with Tween-80) was 100 % of control and 96 % of control and the T/C [1] was 94 % of control and 96 % of control. The T/C [2] was 104 % of control and 89 % of control.
In the case of `Nc1ccc(/C=C/c2ccc3cccnc3c2)cc1`, the T/C (dose: 12.5 mg/kg/injection, schedule: Q01DX009 (ip), vehicle: DMSO) was 108 % of control, the T/C (dose: 25.0 mg/kg/injection, schedule: Q01DX009 (ip), vehicle: DMSO) was 97 % of control and the T/C (dose: 50.0 mg/kg/injection, schedule: Q01DX009 (ip), vehicle: DMSO) was 101 % of control.
For `CCOC(=O)C1C(=O)CN(C(=O)OC)C1C(=O)OCC` (stereo not drawn), the T/C [1] was 99 % of control, the T/C [2] was 95 % of control and the T/C (dose: 200.0 mg/kg/injection, schedule: Q01DX005 (ip), vehicle: saline with Tween-80) was 95 % of control.
With `Cc1nc2ccc(CCN3CCN(c4ccccc4Cl)CC3)cc2[nH]1` the T/C (dose: 50.0 mg/kg/injection, schedule: Q01DX001 (ip), vehicle: Klucel (hydroxypropylcellulose) (HPC)) was 100 % of control, the T/C (dose: 100.0 mg/kg/injection, schedule: Q01DX001 (ip), vehicle: Klucel (hydroxypropylcellulose) (HPC)) was 108 % of control and 120 % of control and the T/C (dose: 200.0 mg/kg/injection, schedule: Q01DX001 (ip), vehicle: Klucel (hydroxypropylcellulose) (HPC)) was 116 % of control and 93 % of control.
`O=C(OCC#CCOC(=O)C(Cl)Cl)C(Cl)Cl` was tested, and the T/C (dose: 100.0 mg/kg/injection, schedule: Q04DX003 (ip), vehicle: saline with Tween-80) was 108 % of control, the T/C (dose: 200.0 mg/kg/injection, schedule: Q04DX003 (ip), vehicle: saline with Tween-80) was 104 % of control and the T/C (dose: 400.0 mg/kg/injection, schedule: Q04DX003 (ip), vehicle: saline with Tween-80) was 100 % of control.
In the case of `O=C(C[n+]1ccccc1)N/N=C/c1ccc([N+](=O)[O-])s1`, the T/C (dose: 6.25 mg/kg/injection, schedule: Q01DX009 (ip), vehicle: saline with Tween-80) was 100 % of control, the T/C (dose: 6.25 mg/kg/injection, schedule: Q01DX009 (ip), vehicle: saline) was 104 % of control and the T/C (dose: 12.5 mg/kg/injection, schedule: Q01DX009 (ip), vehicle: saline with Tween-80) was 96 % of control. For the same molecule, the T/C [3] was 100 % of control, the T/C (dose: 25.0 mg/kg/injection, schedule: Q01DX009 (ip), vehicle: saline with Tween-80) was 116 % of control and the T/C [4] was 100 % of control.
In the case of `C=CC1CCCC[S+]1CC(=O)OCC` (stereo not drawn), the T/C (dose: 25.0 mg/kg/injection, schedule: Q04DX002 (ip), vehicle: saline with Tween-80) was 91 % of control, the T/C (dose: 50.0 mg/kg/injection, schedule: Q04DX002 (ip), vehicle: saline with Tween-80) was 101 % of control and the T/C (dose: 100.0 mg/kg/injection, schedule: Q04DX002 (ip), vehicle: saline with Tween-80) was 103 % of control and 109 % of control.
`CCCOCC(=O)O` was tested, and the T/C [5] was 106 % of control, the T/C [6] was 110 % of control and the T/C (dose: 200.0 mg/kg/injection, schedule: Q01DX009 (ip), vehicle: saline) was 101 % of control.
For `COC(CCC(C)C1OC23CC(OC(=O)CC(C(C)O)OC(=O)CC(O)(O2)C(C)CC3(C)C)C1C)c1cccc(O)c1` (stereo not drawn), the T/C (dose: 3.12 micrograms/kg/injection, schedule: Q01DX009 (ip), vehicle: saline + Tween-80 + alcohol) was 101 % of control, the T/C (dose: 6.25 micrograms/kg/injection, schedule: Q01DX009 (ip), vehicle: saline + Tween-80 + alcohol) was 107 % of control and 109 % of control and 86 % of control and the T/C (dose: 12.5 micrograms/kg/injection, schedule: Q01DX009 (ip), vehicle: saline + Tween-80 + alcohol) was 108 % of control. The T/C (dose: 25.0 micrograms/kg/injection, schedule: Q01DX009 (ip), vehicle: saline + Tween-80 + alcohol) was 111 % of control and 117 % of control and the T/C (dose: 50.0 micrograms/kg/injection, schedule: Q01DX009 (ip), vehicle: saline + Tween-80 + alcohol) was 115 % of control and 117 % of control.
In the case of `CC1=NNB(O)c2c1sc(Br)c2Br`, the T/C (dose: 100.0 mg/kg/injection, schedule: Q01DX001 (ip), vehicle: saline with Tween-80) was 100 % of control and the T/C (dose: 200.0 mg/kg/injection, schedule: Q01DX001 (ip), vehicle: saline with Tween-80) was 95 % of control.
For `Cn1c(=O)c2ccccc2c2ccccc21`, the T/C (dose: 50.0 mg/kg/injection, schedule: Q01DX009 (ip), vehicle: saline with Tween-80) was 96 % of control, the T/C (dose: 100.0 mg/kg/injection, schedule: Q01DX009 (ip), vehicle: saline with Tween-80) was 96 % of control and the T/C (dose: 200.0 mg/kg/injection, schedule: Q01DX009 (ip), vehicle: saline with Tween-80) was 95 % of control. The T/C (dose: 400.0 mg/kg/injection, schedule: Q01DX009 (ip), vehicle: saline with Tween-80) was 99 % of control.
`CCCCCC(CN(C)C)C(=O)/C=C/c1ccccc1` (stereo not drawn) was tested, and the T/C [3] was 102 % of control, the T/C [4] was 94 % of control and the T/C [5] was 104 % of control. The T/C [6] was 105 % of control.
With `c1n[nH]c2c1CCCC2` the T/C [3] was 96 % of control, the T/C [4] was 105 % of control and the T/C [5] was 91 % of control. The T/C [6] was 104 % of control.
For `O=S(=O)(O)O.[Ga]`, the T/C (dose: 33.0 mg/kg/injection, schedule: Q04DX003 (ip), vehicle: saline sonified) was 95 % of control, the T/C (dose: 50.0 mg/kg/injection, schedule: Q01DX009 (ip), vehicle: saline sonified) was 100 % of control and the T/C (dose: 50.0 mg/kg/injection, schedule: Q04DX003 (ip), vehicle: saline sonified) was 110 % of control.
With `CCN=C(NCC)c1ccc(NC(=O)Nc2ccc(NC(=O)Nc3ccc(C(=NCC)NCC)cc3)cc2)cc1` the T/C (dose: 3.12 mg/kg/injection, schedule: Q01DX005 (ip), vehicle: Klucel (hydroxypropylcellulose) (HPC)) was 107 % of control, the T/C (dose: 6.25 mg/kg/injection, schedule: Q01DX005 (ip), vehicle: Klucel (hydroxypropylcellulose) (HPC)) was 111 % of control and the T/C (dose: 12.5 mg/kg/injection, schedule: Q01DX005 (ip), vehicle: Klucel (hydroxypropylcellulose) (HPC)) was 116 % of control. The T/C (dose: 25.0 mg/kg/injection, schedule: Q01DX005 (ip), vehicle: Klucel (hydroxypropylcellulose) (HPC)) was 156 % of control and the T/C [7] was 122 % of control.
With `OCC(COCCCCCCCCCCCC1C=CCC1)OCCCCCCCCCCCC1C=CCC1` (stereo not drawn) the T/C (dose: 100.0 mg/kg/injection, schedule: Q04DX003 (ip), vehicle: saline) was 101 % of control, the T/C (dose: 200.0 mg/kg/injection, schedule: Q04DX003 (ip), vehicle: saline) was 104 % of control and the T/C (dose: 400.0 mg/kg/injection, schedule: Q04DX003 (ip), vehicle: saline) was 104 % of control.
In the case of `O=C1c2ccccc2-c2nsc3c(C(Br)Br)ccc1c23`, the T/C [7] was 99 % of control, the T/C (dose: 100.0 mg/kg/injection, schedule: Q01DX005 (ip), vehicle: Klucel (hydroxypropylcellulose) (HPC)) was 87 % of control and the T/C (dose: 200.0 mg/kg/injection, schedule: Q01DX005 (ip), vehicle: Klucel (hydroxypropylcellulose) (HPC)) was 91 % of control.
